Patent US6211215A, “Heterocyclic compounds, their production and use” (Takeda Chemical Industries, Ltd., priority 1996, dated 2001)

Biological target: HER2 (Homo sapiens, UniProt P04626)
Experiment: Inhibition of phosphorylation of receptor tyrosine in human breast cancer cells (1), T-47D, heregulin-stimulated
Type: cell-based
Experimental: Human breast cancer cell line T-47D was cultured for 7 days in the medium containing 0.1% bovine fetus albumin instead of serum to deprive the medium of estrogen. On the 7th day, 1,000 μl of the cell suspension (250,000 cells) was seeded in each well of the 24-well plates. The culture were incubated at 37° C. in a 5% carbon dioxide gas incubator. On the next day, 100 μl of the 10-fold serial dilution of each compound solution was added to each well and, 2 hours later, 0.5 μg/ml of heregulin was added to it. After 5 minutes the extract solution was added to it to terminate the reaction, and the protein fraction was extracted. To the extract was added an antibody against the human receptor type oncogene HER2 to precipitate the human receptor type oncogene HER2 protein by the reaction of immunoprecipitation. The precipitate was fractionated by the protein electrophoresis. The protein in the electrophoretic gel was transferred to a nylon filter. The filter was allowed to react with the phosphorylated tyrosine-specific antibody. The reaction product was fluorescence-labeled to expose a photofilm. The intensity of the exposure on the photofilm was quantitated by an image-analyzing apparatus. The proportion of the phosphorylation of HER2 tyrosine in the cells added with a compound solution of each concentration was calculated designating the phosphorylation of HER2 tyrosine in the heregulin-added cells as 100%.

Chain of HER2 (P04626 23-1255): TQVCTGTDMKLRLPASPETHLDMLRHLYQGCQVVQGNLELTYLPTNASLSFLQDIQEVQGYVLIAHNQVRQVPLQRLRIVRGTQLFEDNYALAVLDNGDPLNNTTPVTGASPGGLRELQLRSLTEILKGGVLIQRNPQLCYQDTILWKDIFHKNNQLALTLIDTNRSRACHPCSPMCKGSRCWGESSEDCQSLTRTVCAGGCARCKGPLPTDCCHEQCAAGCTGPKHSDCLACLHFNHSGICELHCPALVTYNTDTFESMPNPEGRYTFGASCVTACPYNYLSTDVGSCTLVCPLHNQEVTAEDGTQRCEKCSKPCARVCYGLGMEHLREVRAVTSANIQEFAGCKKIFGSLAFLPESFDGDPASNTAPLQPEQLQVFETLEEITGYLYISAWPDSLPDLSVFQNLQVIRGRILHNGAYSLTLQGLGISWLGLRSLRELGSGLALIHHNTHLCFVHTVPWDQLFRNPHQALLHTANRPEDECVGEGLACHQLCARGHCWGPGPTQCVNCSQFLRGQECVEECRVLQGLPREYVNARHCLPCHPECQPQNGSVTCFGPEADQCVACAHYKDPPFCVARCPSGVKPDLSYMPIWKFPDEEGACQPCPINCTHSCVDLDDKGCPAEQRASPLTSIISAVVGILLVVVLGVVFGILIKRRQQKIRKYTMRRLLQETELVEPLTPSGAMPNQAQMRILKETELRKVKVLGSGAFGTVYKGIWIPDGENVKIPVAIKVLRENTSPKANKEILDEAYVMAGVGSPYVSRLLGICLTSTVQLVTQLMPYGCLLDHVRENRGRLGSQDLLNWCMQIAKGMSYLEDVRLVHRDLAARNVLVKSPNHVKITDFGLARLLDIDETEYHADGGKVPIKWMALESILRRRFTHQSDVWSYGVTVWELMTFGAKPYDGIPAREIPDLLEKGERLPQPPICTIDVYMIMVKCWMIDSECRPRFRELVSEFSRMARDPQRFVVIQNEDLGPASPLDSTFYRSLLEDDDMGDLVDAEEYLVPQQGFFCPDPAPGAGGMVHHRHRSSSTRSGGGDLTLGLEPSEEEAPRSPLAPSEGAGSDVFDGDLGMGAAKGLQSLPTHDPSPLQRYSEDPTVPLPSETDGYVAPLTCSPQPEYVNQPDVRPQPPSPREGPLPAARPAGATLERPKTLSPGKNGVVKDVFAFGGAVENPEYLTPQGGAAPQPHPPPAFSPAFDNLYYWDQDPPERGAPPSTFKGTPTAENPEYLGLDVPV

- activity at 0.4 µM (T47D, 0.4 μM, heregulin control = 100%, read-out: Phosphorylation of the tyrosine residue (%)): 62%
- activity at 1.6 µM (T47D, 1.6 μM, heregulin control = 100%, read-out: Phosphorylation of the tyrosine residue (%)): 52%
- activity at 6.3 µM (T47D, 6.3 μM, heregulin control = 100%, read-out: Phosphorylation of the tyrosine residue (%)): 33%
- activity at 25 µM (T47D, 25 μM, heregulin control = 100%, read-out: Phosphorylation of the tyrosine residue (%)): 20%
Structure (SMILES): C(=C\c1nc(COc2ccc(CCCn3ccnc3)cc2)co1)/c1ccccc1 [Compound 8, 4-[4-[3-(1-imidazolyl)propyl]phenoxymethyl]-2-[(E)-2-phenylethenyl]oxazole]
- Inhibition of receptor tyrosine phosphorylation (heregulin): inhibit dose-dependently the phosphorylation reaction of the tyrosine residue in the receptor protein
